Like-named read-outs stand apart in the source and are kept apart here.
What was measured:
Hs294T = assay: Growth inhibition assay (SRB assay), melanoma cell line Hs294T; format: cell-based, human; conditions: 72 h, mean ± SD
Method: (§1) Three human cancer cell lines were used to evaluate the antiproliferative activity of the obtained compounds: melanoma cell line Hs294T, pancreatic tumor cell line MIA PaCa-2, and lung tumor cell line NCI-H1581. The normal mouse fibroblasts cell line (BALB/3T3 clone A31) was selected as reference. All these lines were purchased from the ATCC (American Type Culture Collection, Rockville, MD, USA). NCI-H1581 cells were grown in RPMI 1640 with GlutaMax medium (Gibco, Thermo Fisher Scientific, Leicestershire, UK) with 5% fetal bovine serum (FBS; HyClone, GE Healthcare, Logan, UT, USA). Hs294T and BALB/3T3 cells were grown in Dulbecco’s Modified Eagle Medium (DMEM; Gibco, Thermo Fisher Scientific, Leicestershire, UK) supplemented with 2 mM L-glutamine and 10% FBS (HyClone, GE Healthcare, Logan, UT, USA). MIA PaCa-2 cells were grown in DMEM (Gibco, Thermo Fisher Scientific, Leicestershire, UK) supplemented with 2 mM L-glutamine, 2.5% Horse Serum (Gibco, Thermo Fisher Scientific, Leicestershire, UK), and 10% FBS (HyClone, GE Healthcare, Logan, UT, USA). All culture media were supplemented with antibiotics: 100 U/mL penicillin (Polfa Tarchomin SA, Warsaw, Poland) and 100 µg/mL streptomycin (Sigma-Aldrich Chemie GmbH, Steinheim, Germany); cells were grown at 37 °C in a humid atmosphere with 5% CO2.
(§2) Twenty-four hours prior to the addition of the tested compounds, 2000 cells per well of Balb/3T3, MIA PaCa-2, and Hs294T cell lines and 2500 cells of NCI-H1581 cell line were seeded in 384-well plates (Greiner Bio-One, Kremsmünster, Austria) in an appropriate medium. The studied compounds were added to the cells at 8 different concentrations in a series of dilutions from 100 to 0.00001 µg/mL for 72 h. Cisplatin was applied as a reference compound (Teva Pharmaceuticals, Warsaw, Poland). DMSO (Sigma-Aldrich Chemie GmbH, Steinheim, Germany) was used as solvent control. The DMSO concentrations corresponded to the solvent concentrations in the tested compound solutions. Then, 30 µL per well of ice-cold 50% TCA (trichloroacetic acid, Avantor, Gliwice, Poland) was added to the cells. After one hour of incubation at room temperature (RT) cells were washed five times with water and stained with 0.4% SRB (sulforhodamine B, Sigma-Aldrich Chemie GmbH, Steinheim, Germany). Twenty-five microliters per well of 0.4% solution of SRB in 1% acetic acid (Avantor, Gliwice, Poland) was applied. After 0.5 h of incubation at RT, the unbound dye was washed out with 1% acetic acid. The bound dye in each well was dissolved in 70 µl of 10 mM TRIS (Tris base, Sigma-Aldrich, Chemie GmbH, Steinheim, Germany). A microplate reader (BioTek Synergy H4, Swindon, UK) with Gen5 software was used to read the absorbance at 540 nm. The results are presented as mean IC50 values (concentration of the compound that inhibits cell proliferation by 50%) ± standard deviation. Half-maximal inhibitory concentration (IC50) values were calculated using the Prolab-3 system based on Cheburator 0.4 [22]. Each experiment was performed in triplicate, and three independent repetitions were made for each experiment. Raw data and IC50 values were placed in the supplementary materials.

MIA PaCa-2 = assay: Growth inhibition assay (SRB assay), pancreatic tumor cell line MIA PaCa-2; format: cell-based, human; conditions: mean ± SD
Method: as §1, §2

NCI-H1581 = assay: Growth inhibition assay (SRB assay), lung tumor cell line NCI-H1581; format: cell-based, human; conditions: for SI (Selectivity Index): SI = IC50 for normal cell line BALB/3T3 / IC50 for NCI-H1581
Method: as §1, §2

BALB/3T3 clone A31 = assay: Growth inhibition assay (SRB assay), normal fibroblasts BALB/3T3 clone A31; format: cell-based, mouse; conditions: mean ± SD
Method: as §1, §2

[1] = Homo sapiens, Hs 294T, read-out: IC50 Hs294T
[2] = Homo sapiens, Hs 294T, supplement, read-out: IC50 Hs294T (raw data)
[3] = Homo sapiens, MIA PaCa-2, 72 h, read-out: IC50 MIA PaCa-2
[4] = Homo sapiens, MIA PaCa-2, supplement, 72 h, read-out: IC50 MIA PaCa-2 (raw data)
[5] = Homo sapiens, NCI-H1581, 72 h, 72 h, SRB, mean ± SD, read-out: IC50 NCI-H1581
[6] = Homo sapiens, NCI-H1581, 72 h, supplement, 72 h, SRB, mean ± SD, read-out: IC50 NCI-H1581 (raw data)
[7] = Mus musculus, BALB/3T3 clone A31, 72 h, normal cell line, read-out: IC50 BALB3T3
[8] = Mus musculus, BALB/3T3 clone A31, 72 h, supplement, read-out: IC50 BALB3T3 (raw data)

Structure (SMILES) | SI (Selectivity Index) (NCI-H1581) | IC50 (Hs294T; [1]) | IC50 (Hs294T; [2]) | IC50 (MIA PaCa-2; [3]) | IC50 (MIA PaCa-2; [4]) | IC50 (NCI-H1581; [5]) | IC50 (NCI-H1581; [6]) | IC50 (BALB/3T3 clone A31; [7]) | IC50 (BALB/3T3 clone A31; [8]) | also measured
N.N.[Cl][Pt][Cl] [Cisplatin, reference compound] | 0.3 |  |  |  |  |  |  |  |  | IC50 (Hs294T; read-out: IC50 Hs294T): 1.3 ± 0.5 µM; IC50 Hs294T (raw data) (Hs294T; supplement): 0.39 ± 0.15 µg/mL; IC50 (MIA PaCa-2; 72 h, read-out: IC50 MIA PaCa-2): 12.6 ± 3.13 µM; IC50 MIA PaCa-2 (raw data) (MIA PaCa-2; supplement, 72 h): 3.79 ± 0.94 µg/mL; IC50 (NCI-H1581; 72 h, SRB, mean ± SD, listed as cisplatin, read-out: IC50 NCI-H1581): 7.3 µM; IC50 (NCI-H1581; 72 h, SRB, mean ± SD, read-out: IC50 NCI-H1581): 7.27 ± 2.83 µM; IC50 NCI-H1581 (raw data) (NCI-H1581; supplement, 72 h, SRB, mean ± SD): 2.18 ± 0.85 µg/mL; IC50 (BALB/3T3 clone A31; 72 h, normal cell line, read-out: IC50 BALB3T3): 1.83 ± 0.7 µM; IC50 BALB3T3 (raw data) (BALB/3T3 clone A31; supplement, 72 h): 0.55 ± 0.21 µg/mL
C[C@@H](c1ccccc1)N1C[C@@H](n2cc(CO)nn2)[C@@H]2CC[C@H]1C2 [Compound 1, (1-((1S,4S,5R)-2-((S)-1-phenylethyl)-2-azabicyclo[3.2.1]octan-4-yl)-1H-1,2,3-triazol-4-yl)methanol] |  | > 100 µM | > 100 µM | > 100 µM | > 100 µM | > 100 µM | > 100 µM | > 100 µM | > 100 µM | IC50 (Hs294T; Homo sapiens, Hs 294T, supplement, read-out: IC50 Hs294T (non-rounded data)): > 100 µM; IC50 (MIA PaCa-2; Homo sapiens, MIA PaCa-2, supplement, 72 h, read-out: IC50 MIA PaCa-2 (non-rounded data)): > 100 µM; IC50 (NCI-H1581; Homo sapiens, NCI-H1581, 72 h, supplement, 72 h, SRB, mean ± SD, read-out: IC50 NCI-H1581 (non-rounded data)): > 100 µM; IC50 (BALB/3T3 clone A31; Mus musculus, BALB/3T3 clone A31, 72 h, supplement, read-out: IC50 BALB3T3 (non-rounded data)): > 100 µM
C[C@@H](c1ccccc1)N1C[C@H](n2cc(CO)nn2)[C@@H]2CC[C@H]1C2 [Compound 2, (1-((1S,4R,5R)-2-((S)-1-phenylethyl)-2-azabicyclo[3.2.1]octan-4-yl)-1H-1,2,3-triazol-4-yl)methanol] |  | > 100 µM | 46.1 ± 2.17 µg/mL | > 100 µM | 71.4 ± 11.8 µg/mL | 72.3 ± 34 µM | 22.6 ± 10.6 µg/mL | > 100 µM | 56.1 ± 8.24 µg/mL | 
C[C@@H](c1ccccc1)N1C[C@@H](n2cc(CN)nn2)[C@@H]2CC[C@H]1C2 [Compound 3, (1-((1S,4S,5R)-2-((S)-1-phenylethyl)-2-azabicyclo[3.2.1]octan-4-yl)-1H-1,2,3-triazol-4-yl)methanamine] | 8 | 88.5 ± 9.41 µM | 27.6 ± 2.93 µg/mL | 99.9 ± 4.46 µM | 31.1 ± 1.39 µg/mL | 11.3 ± 1.25 µM | 3.51 ± 0.39 µg/mL | 94.4 ± 1.89 µM | 29.4 ± 0.59 µg/mL | 
C=CC(=O)OCc1cn([C@@H]2CN([C@@H](C)c3ccccc3)[C@H]3CC[C@@H]2C3)nn1 [Compound 4, (1-((1S,4S,5R)-2-((S)-1-phenylethyl)-2-azabicyclo[3.2.1]octan-4-yl)-1H-1,2,3-triazol-4-yl)methyl acrylate] | 0.2 | 9.52 ± 2.51 µM | 3.49 ± 0.92 µg/mL | 87.7 ± 1.66 µM | 32.1 ± 0.61 µg/mL | 7.91 ± 1.2 µM | 2.9 ± 0.44 µg/mL | 1.75 ± 0.76 µM | 0.64 ± 0.28 µg/mL | 
C=CC(=O)OCc1cn([C@H]2CN([C@@H](C)c3ccccc3)[C@H]3CC[C@@H]2C3)nn1 [Compound 5, (1-((1S,4R,5R)-2-((S)-1-phenylethyl)-2-azabicyclo[3.2.1]octan-4-yl)-1H-1,2,3-triazol-4-yl)methyl acrylate] | 1.5 | 72.8 ± 9.71 µM | 26.7 ± 3.56 µg/mL | 86.31 ± 0.35 µM | 31.63 ± 0.13 µg/mL | 18.8 ± 4.45 µM | 6.88 ± 1.63 µg/mL | 28.5 ± 22.7 µM | 10.5 ± 8.31 µg/mL | 
C[C@@H](c1ccccc1)N1C[C@@H](n2cc(-c3cccc(N)c3)nn2)[C@@H]2CC[C@H]1C2 [Compound 6, 3-(1-((1S,4S,5R)-2-((S)-1-phenylethyl)-2-azabicyclo[3.2.1]octan-4-yl)-1H-1,2,3-triazol-4-yl)aniline] | 2.5 | 74.5 ± 14.9 µM | 27.8 ± 5.58 µg/mL | 84.4 ± 1.04 µM | 31.5 ± 0.39 µg/mL | 30.8 ± 3.51 µM | 11.5 ± 1.31 µg/mL | 77.1 ± 1.1 µM | 28.8 ± 0.41 µg/mL | 
C[C@@H](c1ccccc1)N1C[C@H](n2cc(-c3cccc(N)c3)nn2)[C@@H]2CC[C@H]1C2 [Compound 7, 3-(1-((1S,4R,5R)-2-((S)-1-phenylethyl)-2-azabicyclo[3.2.1]octan-4-yl)-1H-1,2,3-triazol-4-yl)aniline] | 7 | 65.9 ± 8.3 µM | 24.6 ± 3.1 µg/mL | 77 ± 1.98 µM | 28.7 ± 0.74 µg/mL | 7.39 ± 1.15 µM | 2.76 ± 0.43 µg/mL | 52.7 ± 6.16 µM | 19.7 ± 2.3 µg/mL | 
